Measured values reported in ChEMBL document CHEMBL1131866, “Stereoisomeric acylamidomorpholinium carnitine analogues: selective inhibitors of carnitine palmitoyltransferase I and II” (Bioorg Med Chem Lett, 1999).

Target: T1, Carnitine O-palmitoyltransferase 2, mitochondrial (Rattus norvegicus) (UniProt P18886)
T1 sequence (whole entry): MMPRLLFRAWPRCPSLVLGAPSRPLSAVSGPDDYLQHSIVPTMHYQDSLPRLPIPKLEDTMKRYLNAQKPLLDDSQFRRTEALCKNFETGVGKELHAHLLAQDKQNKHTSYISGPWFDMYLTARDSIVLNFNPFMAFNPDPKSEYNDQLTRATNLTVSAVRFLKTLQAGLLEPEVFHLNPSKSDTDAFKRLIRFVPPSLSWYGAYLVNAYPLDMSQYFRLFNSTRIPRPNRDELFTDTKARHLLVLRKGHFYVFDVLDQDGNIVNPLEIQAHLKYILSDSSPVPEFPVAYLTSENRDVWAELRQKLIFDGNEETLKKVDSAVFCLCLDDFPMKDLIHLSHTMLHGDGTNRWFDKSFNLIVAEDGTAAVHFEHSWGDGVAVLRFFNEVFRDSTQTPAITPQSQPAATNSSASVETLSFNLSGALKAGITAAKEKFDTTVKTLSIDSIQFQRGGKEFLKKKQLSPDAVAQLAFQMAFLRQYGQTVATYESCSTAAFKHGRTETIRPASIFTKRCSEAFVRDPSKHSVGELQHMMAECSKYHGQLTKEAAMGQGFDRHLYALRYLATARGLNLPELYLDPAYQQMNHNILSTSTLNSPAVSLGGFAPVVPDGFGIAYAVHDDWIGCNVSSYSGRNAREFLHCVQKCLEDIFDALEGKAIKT
Test: Inhibitory activity against rat-liver mitochondrial Carnitine palmitoyl transferase II
Settings: concentration not given here

inhibition: 41%
SMILES: CCCCCCCCCCCCCC(=O)NC[C@H]1C[N+](C)(C)C[C@@H](CC(=O)[O-])O1
